Assays:
Format in all cases: cell-based
[1] = test system: mitochondria in mouse keratinocytes; test: MTT assay after alloxan exposure
Excerpt: (§1) This assay measures the specific activity of mitochondria to cleave the tetrazolium ring of the soluble dye MTT [3-(4,5-dimethylthiazol-2-yl)-2,5-diphenyl tetrazolium bromide] to form the insoluble blue formazan form. Living mitochondria metabolize MTT and make the blue formazan; dead mitochondria immediately stop forming blue formazan. In the MTT assay, mammalian cells are pretreated with L-ergothioneine and then treated with the mitochondrial damaging agent, in this example UV-B. MTT is then added and the formation of the blue dye is measured spectrophotometrically.
Mouse keratinocytes were pretreated with various concentrations of L-ergothioneine (unencapsulated) and then exposed to alloxan at various concentrations.
The effect of alloxan on the pretreated mitochondria was determined by the MTT assay as in Example 1.
Table 2 provides the percent optical densities of the formazan blue present relative to unexposed (control) mitochondria in cells for various alloxan concentrations, and L-ergothioneine concentrations.

[2] = test system: mitochondrial membranes in mouse keratinocytes; test: JC-1 assay (fluorescence microscopy) after alloxan
Procedure: Mouse keratinocytes were pretreated with L-ergothioneine (unencapsulated) at 1 mM and then treated with 8 mM alloxan. One day after treatment with L-ergothioneine, the cells were treated for 10 minutes with JC-I and the cells examined by fluorescence microscopy.
The JC-1 assay makes use of the fluorescent dye JC-1 (5,5′, 6,6′-tetrachloro-1, 1′, 3,3′-tetrathylbenzimidazolecarbocyanine iodide) (Molecular Probes Inc., Eugene, OR). This dye immediately and specifically intercalates into mitochondrial membranes. In living, charged membranes the JC-1 dye is maintained in the membrane as a […], and fluoresces green. When the mitochondrial membrane is damaged, aggregation of the JC-1 dye into J-1 aggregates occurs and the fluorescence changes to orange. Orange coloration is then characteristic of mitochondrial membrane damage.

[3] = test system: mitochondria in mouse keratinocytes; test: MTT assay after UV-B irradiation
Excerpt: Mouse keratinocytes were pretreated with different concentrations of L-ergothioneine (unencapsulated) and then exposed to ultraviolet B radiation (UV-B), the shorter wavelength range of UV light present in sunlight which is responsible for significant photodamage to the skin. The light was generated by a FS20 sunlamp filtered with 2 sheets of Kodacel to eliminate light having a wavelength less than 280 nm.
as §1
Table I provides the percent optical density of the formazan blue present relative to unexposed (control) mitochondria in cells for various UV-B levels, expressed as joules per square meter, and L-ergothioneine concentrations.
Mouse keratinocytes were pretreated with L-ergothioneine, both unencapsulated and encapsulated in liposomes (prepared as described below), at a final concentration of 12.5 μM. A control group was not treated with L-ergothioneine. The mouse keratinocytes were then exposed to UV-B as in Example I.
The L-ergothioneine was encapsulated into liposomes composed of phosphatidyl choline, phosphatidyl ethanolamine, oleic acid and cholesteryl hemisuccinate in a ratio of 2:2:1:5. To calculate the concentration of entrapped L-ergothioneine, the liposomes are extracted with chloroform, and the OD258 is measured in the aqueous layer. The concentration of L-ergothioneine is calculated using the ε258 of L-ergothioneine of 14,500. The final concentration of L-ergothioneine in the purified liposome was about 1.1 mM. […] Unencapsulated L-ergothioneine was adjusted to the same concentration by dilution.
The effect of the UV-B on the pretreated and untreated mitochondria was determined by the MTT assay as in Example 1.
Table 3 provides the percent optical density of the formazan blue present in each case relative to unexposed (control) mitochondria in cells for various UV-B levels.

C[N+](C)(C)[C@@H](Cc1c[nH]c(=S)[nH]1)C(=O)[O-] [L-ergothioneine]
percent optical density of formazan blue relative to unexposed (control) mitochondria ([1]; 0.1 mM L-ergothioneine, alloxan 0 mM): 100.0% | percent optical density of formazan blue relative to unexposed (control) mitochondria ([1]; 0.1 mM L-ergothioneine, alloxan 0.625 mM): 86.3% | percent optical density of formazan blue relative to unexposed (control) mitochondria ([1]; 0.1 mM L-ergothioneine, alloxan 1.25 mM): 80.8% | percent optical density of formazan blue relative to unexposed (control) mitochondria ([1]; 0.1 mM L-ergothioneine, alloxan 2.5 mM): 81.1% | percent optical density of formazan blue relative to unexposed (control) mitochondria ([1]; 0.1 mM L-ergothioneine, alloxan 5 mM): 73.3% | percent optical density of formazan blue relative to unexposed (control) mitochondria ([1]; 0.1 mM L-ergothioneine, alloxan 10 mM): 74.9% | percent optical density of formazan blue relative to unexposed (control) mitochondria ([1]; 0.1 mM L-ergothioneine, alloxan 20 mM): 79.1% | percent optical density of formazan blue relative to unexposed (control) mitochondria ([1]; 0.5 mM L-ergothioneine, alloxan 0 mM): 100.0% | percent optical density of formazan blue relative to unexposed (control) mitochondria ([1]; 0.5 mM L-ergothioneine, alloxan 0.625 mM): 88.3% | percent optical density of formazan blue relative to unexposed (control) mitochondria ([1]; 0.5 mM L-ergothioneine, alloxan 1.25 mM): 81.0% | percent optical density of formazan blue relative to unexposed (control) mitochondria ([1]; 0.5 mM L-ergothioneine, alloxan 2.5 mM): 81.0% | percent optical density of formazan blue relative to unexposed (control) mitochondria ([1]; 0.5 mM L-ergothioneine, alloxan 5 mM): 73.3% | percent optical density of formazan blue relative to unexposed (control) mitochondria ([1]; 0.5 mM L-ergothioneine, alloxan 10 mM): 74.1% | percent optical density of formazan blue relative to unexposed (control) mitochondria ([1]; 0.5 mM L-ergothioneine, alloxan 20 mM): 78.4% | percent optical density of formazan blue relative to unexposed (control) mitochondria ([1]; 0.5 mM L-ergothioneine, alloxan 40 mM): 72.3% | percent optical density of formazan blue relative to unexposed (control) mitochondria ([1]; 1 mM L-ergothioneine, alloxan 0 mM): 100.0% | percent optical density of formazan blue relative to unexposed (control) mitochondria ([1]; 1 mM L-ergothioneine, alloxan 0.625 mM): 91.2% | percent optical density of formazan blue relative to unexposed (control) mitochondria ([1]; 1 mM L-ergothioneine, alloxan 1.25 mM): 86.5% | percent optical density of formazan blue relative to unexposed (control) mitochondria ([1]; 1 mM L-ergothioneine, alloxan 2.5 mM): 82.9% | percent optical density of formazan blue relative to unexposed (control) mitochondria ([1]; 1 mM L-ergothioneine, alloxan 10 mM): 68.5% | percent optical density of formazan blue relative to unexposed (control) mitochondria ([1]; 1 mM L-ergothioneine, alloxan 20 mM): 72.7% | percent optical density of formazan blue relative to unexposed (control) mitochondria ([1]; 1 mM L-ergothioneine, alloxan 40 mM): 66.6% | protection from oxidative damage by alloxan ([1]; dose-responsive portion of the curve (alloxan up to 5 mM)): afforded protection from oxidative damage | JC-1 fluorescence colour (orange = mitochondrial membrane damage) ([2]; 1 mM L-ergothioneine alone, no alloxan): green fluorescence | JC-1 fluorescence colour (orange = mitochondrial membrane damage) ([2]; 1 mM L-ergothioneine pretreatment, then 8 mM alloxan): much less orange than cells treated with alloxani alone | protection of mitochondria from UV-B damage ([3]; 12.5 μM, UV-B 100 and 500 J/m^2): significant but not complete protection | percent optical density of formazan blue relative to unexposed (control) mitochondria ([3]; 0.1 mM L-ergothioneine, UV-B 0 J/m^2): 100.0% | percent optical density of formazan blue relative to unexposed (control) mitochondria ([3]; 0.1 mM L-ergothioneine, UV-B 100 J/m^2): 95.7% | percent optical density of formazan blue relative to unexposed (control) mitochondria ([3]; 0.1 mM L-ergothioneine, UV-B 200 J/m^2): 97.0% | percent optical density of formazan blue relative to unexposed (control) mitochondria ([3]; 0.1 mM L-ergothioneine, UV-B 500 J/m^2): 91.0% | percent optical density of formazan blue relative to unexposed (control) mitochondria ([3]; 0.5 mM L-ergothioneine, UV-B 100 J/m^2): 97.2% | percent optical density of formazan blue relative to unexposed (control) mitochondria ([3]; 0.5 mM L-ergothioneine, UV-B 200 J/m^2): 99.4% | percent optical density of formazan blue relative to unexposed (control) mitochondria ([3]; 0.5 mM L-ergothioneine, UV-B 500 J/m^2): 90.8% | percent optical density of formazan blue relative to unexposed (control) mitochondria ([3]; 1 mM L-ergothioneine, UV-B 0 J/m^2): 100.0% | percent optical density of formazan blue relative to unexposed (control) mitochondria ([3]; 1 mM L-ergothioneine, UV-B 100 J/m^2): 97.1% | percent optical density of formazan blue relative to unexposed (control) mitochondria ([3]; 1 mM L-ergothioneine, UV-B 200 J/m^2): 103.9% | percent optical density of formazan blue relative to unexposed (control) mitochondria ([3]; 1 mM L-ergothioneine, UV-B 500 J/m^2): 96.0% | mitochondrial viability ([3]; UV-B 100 and 200 J/m^2, all three levels of L-ergothioneine (0.1, 0.5, 1 mM)): greater than 95% | protection of mitochondria ([3]; highest UV-B dose (500 J/m^2)): still protected the mitochondria | percent optical density of formazan blue relative to unexposed (control) mitochondria ([3]; unencapsulated, 12.5 μM, UV-B 0 J/m^2): 100.0% | percent optical density of formazan blue relative to unexposed (control) mitochondria ([3]; unencapsulated, 12.5 μM, UV-B 100 J/m^2): 89.9% | percent optical density of formazan blue relative to unexposed (control) mitochondria ([3]; unencapsulated, 12.5 μM, UV-B 500 J/m^2): 89.9% | concentration at which active (protection from UV-B) ([3]; unencapsulated, UV-B 100 and 500 J/m^2): ≤ 12.5 µM
